Experimental data: BindingDB's records for doi:10.1038/sj.bjp.0702059 (Smithkline Beecham Pharmaceuticals, 1998)

What was measured:
[1] = molecular target: 5-hydroxytryptamine receptor 2B (Homo sapiens, UniProt P41595)
[2] = molecular target: 5-hydroxytryptamine receptor 6 (Homo sapiens, UniProt P50406)
[3] = molecular target: 5-hydroxytryptamine receptor 2A (Homo sapiens, UniProt P28223)
[4] = molecular target: T1, 5-hydroxytryptamine receptor 1F (Homo sapiens, UniProt P30939)
T1 sequence (P30939 whole entry): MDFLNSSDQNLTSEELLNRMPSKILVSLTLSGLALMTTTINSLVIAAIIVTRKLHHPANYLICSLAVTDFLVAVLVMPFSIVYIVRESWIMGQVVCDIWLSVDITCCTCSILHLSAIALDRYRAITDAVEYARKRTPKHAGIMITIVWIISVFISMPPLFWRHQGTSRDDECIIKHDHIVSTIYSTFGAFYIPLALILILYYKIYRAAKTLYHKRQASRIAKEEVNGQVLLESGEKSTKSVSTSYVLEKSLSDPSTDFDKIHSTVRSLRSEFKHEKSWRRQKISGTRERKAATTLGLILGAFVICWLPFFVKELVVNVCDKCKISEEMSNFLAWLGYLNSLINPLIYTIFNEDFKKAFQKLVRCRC

[5] = molecular target: 5-hydroxytryptamine receptor 1E (Homo sapiens, UniProt P28566)
[6] = molecular target: 5-hydroxytryptamine receptor 4 (Homo sapiens, UniProt Q13639)
[7] = molecular target: 5-hydroxytryptamine receptor 7 (Homo sapiens, UniProt P34969)
[8] = molecular target: 5-hydroxytryptamine receptor 1B (Homo sapiens, UniProt P28222)
5-hydroxytryptamine receptor 1B, sequence (P28222 whole entry): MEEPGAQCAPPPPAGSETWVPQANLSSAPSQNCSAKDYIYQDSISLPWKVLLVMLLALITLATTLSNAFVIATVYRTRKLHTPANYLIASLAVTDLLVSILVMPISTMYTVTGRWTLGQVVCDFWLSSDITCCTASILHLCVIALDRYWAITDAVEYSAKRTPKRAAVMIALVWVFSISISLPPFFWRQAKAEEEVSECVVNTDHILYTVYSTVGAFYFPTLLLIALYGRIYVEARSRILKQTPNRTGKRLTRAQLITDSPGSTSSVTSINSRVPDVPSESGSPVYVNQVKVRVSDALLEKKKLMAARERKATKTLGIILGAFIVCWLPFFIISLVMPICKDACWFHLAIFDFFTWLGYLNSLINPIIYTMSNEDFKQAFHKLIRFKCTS

5-hydroxytryptamine receptor 6, sequence (P50406 whole entry): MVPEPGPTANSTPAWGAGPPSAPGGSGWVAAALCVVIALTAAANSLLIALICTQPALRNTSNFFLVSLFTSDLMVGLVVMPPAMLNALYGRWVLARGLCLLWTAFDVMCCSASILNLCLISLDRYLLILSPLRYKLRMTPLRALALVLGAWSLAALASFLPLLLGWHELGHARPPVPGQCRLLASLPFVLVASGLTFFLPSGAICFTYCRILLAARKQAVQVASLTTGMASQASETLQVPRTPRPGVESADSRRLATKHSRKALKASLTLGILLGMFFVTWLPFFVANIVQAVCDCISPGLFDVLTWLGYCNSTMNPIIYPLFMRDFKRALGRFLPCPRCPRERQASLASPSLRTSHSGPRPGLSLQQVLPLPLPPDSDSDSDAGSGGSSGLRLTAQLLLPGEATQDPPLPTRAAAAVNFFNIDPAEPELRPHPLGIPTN
5-hydroxytryptamine receptor 4, sequence (Q13639 whole entry): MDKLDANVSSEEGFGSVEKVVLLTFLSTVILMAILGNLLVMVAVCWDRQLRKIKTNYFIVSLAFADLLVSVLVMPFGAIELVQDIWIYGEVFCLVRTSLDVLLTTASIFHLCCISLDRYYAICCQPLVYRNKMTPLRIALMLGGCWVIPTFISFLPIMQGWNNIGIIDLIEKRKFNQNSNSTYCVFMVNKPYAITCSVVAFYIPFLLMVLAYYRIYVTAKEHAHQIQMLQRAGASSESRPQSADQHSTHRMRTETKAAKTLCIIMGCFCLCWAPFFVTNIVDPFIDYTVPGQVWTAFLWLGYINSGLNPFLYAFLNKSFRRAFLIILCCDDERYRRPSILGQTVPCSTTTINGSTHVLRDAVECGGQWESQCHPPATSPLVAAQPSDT
5-hydroxytryptamine receptor 2B, sequence (P41595 whole entry): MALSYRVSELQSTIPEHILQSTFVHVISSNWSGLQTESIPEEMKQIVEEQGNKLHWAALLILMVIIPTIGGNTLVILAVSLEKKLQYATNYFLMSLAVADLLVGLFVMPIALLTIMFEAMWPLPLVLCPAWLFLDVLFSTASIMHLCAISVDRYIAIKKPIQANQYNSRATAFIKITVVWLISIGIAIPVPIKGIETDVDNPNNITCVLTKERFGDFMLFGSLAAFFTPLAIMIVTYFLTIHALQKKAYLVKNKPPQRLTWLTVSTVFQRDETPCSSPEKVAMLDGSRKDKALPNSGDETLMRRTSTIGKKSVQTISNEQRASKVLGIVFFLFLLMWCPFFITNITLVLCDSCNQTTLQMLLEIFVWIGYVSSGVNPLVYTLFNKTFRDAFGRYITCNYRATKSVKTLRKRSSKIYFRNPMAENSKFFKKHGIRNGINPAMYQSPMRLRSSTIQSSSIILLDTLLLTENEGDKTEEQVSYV
5-hydroxytryptamine receptor 7, sequence (P34969 whole entry): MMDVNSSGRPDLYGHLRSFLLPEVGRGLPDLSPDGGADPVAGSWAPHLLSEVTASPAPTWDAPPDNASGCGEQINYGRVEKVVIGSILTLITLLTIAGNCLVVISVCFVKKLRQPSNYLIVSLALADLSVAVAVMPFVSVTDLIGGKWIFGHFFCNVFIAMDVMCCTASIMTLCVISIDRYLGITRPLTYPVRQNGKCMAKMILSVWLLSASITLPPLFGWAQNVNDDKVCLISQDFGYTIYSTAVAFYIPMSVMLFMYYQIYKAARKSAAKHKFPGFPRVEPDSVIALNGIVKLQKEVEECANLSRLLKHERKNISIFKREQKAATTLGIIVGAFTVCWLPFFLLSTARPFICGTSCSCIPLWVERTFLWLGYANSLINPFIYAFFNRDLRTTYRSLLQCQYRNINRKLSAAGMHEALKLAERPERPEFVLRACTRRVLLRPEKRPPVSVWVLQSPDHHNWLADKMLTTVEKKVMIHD
5-hydroxytryptamine receptor 2A, sequence (P28223 whole entry): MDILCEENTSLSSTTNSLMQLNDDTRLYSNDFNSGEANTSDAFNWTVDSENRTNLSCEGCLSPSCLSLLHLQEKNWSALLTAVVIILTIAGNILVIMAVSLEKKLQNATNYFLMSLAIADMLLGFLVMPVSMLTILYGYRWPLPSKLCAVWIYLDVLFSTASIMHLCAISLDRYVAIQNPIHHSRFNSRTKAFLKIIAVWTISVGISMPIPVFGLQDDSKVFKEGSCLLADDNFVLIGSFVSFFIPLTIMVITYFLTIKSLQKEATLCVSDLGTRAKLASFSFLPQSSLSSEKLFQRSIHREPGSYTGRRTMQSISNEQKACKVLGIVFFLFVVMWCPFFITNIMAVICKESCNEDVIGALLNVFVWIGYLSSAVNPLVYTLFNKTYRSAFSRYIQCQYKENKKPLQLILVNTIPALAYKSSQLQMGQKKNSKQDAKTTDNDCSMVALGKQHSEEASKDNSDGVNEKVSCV
5-hydroxytryptamine receptor 1E, sequence (P28566 whole entry): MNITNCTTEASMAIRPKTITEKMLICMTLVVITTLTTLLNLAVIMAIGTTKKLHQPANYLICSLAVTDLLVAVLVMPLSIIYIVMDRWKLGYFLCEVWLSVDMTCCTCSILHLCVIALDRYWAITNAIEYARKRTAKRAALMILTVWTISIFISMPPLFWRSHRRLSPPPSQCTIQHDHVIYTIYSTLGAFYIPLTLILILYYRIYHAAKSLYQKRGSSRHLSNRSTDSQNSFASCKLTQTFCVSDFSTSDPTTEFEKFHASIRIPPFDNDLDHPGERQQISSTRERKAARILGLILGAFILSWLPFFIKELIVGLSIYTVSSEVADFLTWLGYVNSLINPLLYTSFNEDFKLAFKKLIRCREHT

Structure (SMILES)	Ki [1] [µM]	Ki [2] [µM]	Ki [3] [µM]	Ki [4] [µM]	Ki [5] [µM]	Ki [6] [µM]	Ki [7] [µM]	Ki [8] [µM]
Cc1nc(-c2ccc(-c3ccc(C(=O)N4CCc5cc6c(cc54)C4(CCN(C)CC4)CO6)cc3)c(C)c2)no1 [4-[2-methyl-4-(5-methyl-1,2,4-oxadiazol-3-yl)phenyl]phenyl-1'-methylspiro[3,5,6,7-tetrahydro-2H-furo[2,3-f]indole-3,4'-(hexahydropyridine)]-5-ylmethanone]	3.16	2.14	1.2	> 10	> 10	2.04	1	–
COc1ccc(NC(=O)c2ccc(-c3ccc(-c4noc(C)n4)cc3C)cc2)cc1N1CCN(C)CC1 [SMR001230745]	–	–	–	–	–	–	–	0.00093
